This note sets out measurements from PubChem BioAssay (NCI).

One may read the GI50 as the concentration at which growth is held to half of that of the control. Broadly, the TGI is the concentration at which net growth stops. Low readings indicate greater sensitivity of the cells, high ones lower sensitivity of the cells.

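Compound exposure: 48 hours, 5 concentrations, 96-well plates. GI50 marks 50% less growth. TGI: total growth inhibition.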 Some results are limits rather than exact numbers.

What all share (assay): DTP human tumour cell line panel, 48 h
Test [1] relates to HOP-62 NSCLC.
The subject of test [2] is MALME-3M melanoma.
For test [3], the system named is LOX IMVI melanoma.
In test [4] the test system is SF-268 CNS.
Test [5] concerns OVCAR-5 ovarian.
Test [6] relates to SK-MEL-2 melanoma.
Test [7] has as its system RPMI-8226 leukemia.
The subject of test [8] is SK-MEL-28 melanoma.
The test system of test [9] is UACC-62 melanoma.
Test [10] concerns HCT-15 colon.

For the compound `COc1ccc(CNCCN2C(=O)c3ccc4c5c(ccc(c35)C2=O)C(=O)N(CCNCc2ccc(OC)c(OC)c2OC)C4=O)c(OC)c1OC`, the GI50 was 0.248 µM in test [1] and 0.112 µM in [2]. For the same compound, the total growth inhibition concentration (TGI) in test [1] was 1.08 µM; in test [2], 0.297 µM.

On to `CN(C)c1ccc(/C=C(\C#N)C(=O)c2ccccc2)cc1Br`, for which the TGI is 74.2 µM in [3]; over 100 µM in test [4]; over 100 µM in test [5]; 39.6 µM in test [1]; over 100 µM in [6]; 63.4 µM in test [7]. Also, the TGI in [8], in test [9] and in [2] was over 100 µM throughout.

Take `O=C(C#Cc1ccccc1)Nc1ccccc1CC(c1c[nH]c2ccccc12)c1c[nH]c2ccccc12`: the total growth inhibition concentration (TGI) is 43.6 µM in [3]; over 100 µM in [4]; over 100 µM in test [1]; 51.9 µM in test [6]; 16.8 µM in test [7]; 32.4 µM in test [8]. In addition, the concentration for total growth inhibition (TGI) in test [9] was 22 µM; in test [2], over 100 µM.

As for `CNC(=O)/C(C#N)=C(\N)N1CCCC1`, the TGI in test [4], in test [5], in test [1], in test [6], in test [7] and in test [10] was over 100 µM throughout. In addition, the TGI in test [8], in [9] and in test [2] was over 100 µM throughout.

In the case of `Cn1cnc([N+](=O)[O-])c1Sc1nnc(-c2ccc(Cl)cc2)n1C`, the TGI in test [3] is 20.6 µM; in test [4], 54.7 µM; in test [5], 34.8 µM; in test [1] it was over 100 µM; in test [6], 34.8 µM; in test [7] it was 71.3 µM. The concentration for total growth inhibition (TGI) turned out to be 27.4 µM in [8], 29 µM in [9] and 23 µM in test [2].

`COc1ccc(-c2oc(C=Nc3ccccc3)c([N+](=O)[O-])c2-c2ccc(OC)c(OC)c2)cc1OC`: the total growth inhibition concentration (TGI) in test [3], in test [4], in test [5], in test [1], in test [7] and in test [10] was over 100 µM throughout. For the same compound, the TGI in test [8], in [9] and in test [2] was over 100 µM each time.

As for `COc1ccc2nc3c(nc2c1)C(C)(C)C=C3c1ccc(Br)cc1`, the concentration for total growth inhibition (TGI) in [3], in test [4], in [5], in [1], in test [6] and in test [7] was over 100 µM in each case. Also, the TGI in [10] and in test [2] was over 100 µM throughout.

For `CCC(/C(=N/NC(=O)C[N+](C)(C)C)c1ccccc1)C1OC(=O)c2ccccc21` (stereo not drawn), the concentration for total growth inhibition (TGI) in test [3], in test [4], in test [5], in [1], in test [7] and in test [10] was over 100 µM each time. Further, the total growth inhibition concentration (TGI) in [8], in test [9] and in test [2] was over 100 µM throughout.

For the compound `CC(=O)O[C@H]1C(=O)[C@@]2(C)C(C(OC(=O)c3ccccc3)[C@]3(O)CC(OC(=O)C(O)C(NC(=O)c4cccc(Cl)c4)c4ccccc4)C(C)=C1C3(C)C)[C@]1(OC(C)=O)CO[C@@H]1C[C@@H]2O` (stereo partly drawn), the TGI in test [3], in [4], in test [5], in test [1], in [6] and in [7] was over 10 µM in each case. Moreover, the TGI in test [10] and in [2] was over 10 µM in each case.

On to `COc1cc2ccnc3c2c(c1OC)N(C)C=C3`, for which the concentration for total growth inhibition (TGI) in test [3] is 50.4 µM; in [4], over 100 µM; in test [5], over 100 µM; in test [1] it was over 100 µM; in test [6], 57.6 µM; in test [7], 82.2 µM. In addition, the figures for the TGI in test [10], in test [8] and in test [9] were over 100 µM, over 100 µM and 80.3 µM, respectively.

`C#CCn1c(=O)c2cc(OC)c(OC)cc2n(CC#C)c1=O`: the TGI in [3], in test [4], in test [5], in test [1], in test [6] and in [7] was over 10 µM each time. The TGI in test [10], in test [8] and in [2] was over 10 µM throughout.

As to `CSCCC(NOC(=O)Cc1ccccc1)P(=O)(O)c1ccccc1` (stereo not drawn), the total growth inhibition concentration (TGI) in test [3], in [5], in test [1], in test [6], in [7] and in test [10] was over 100 µM throughout. In test [8], this compound registered a concentration for total growth inhibition (TGI) of over 100 µM.

Turning to `O=C(NC1CCCCC1)N1CCNC1=S`, the total growth inhibition concentration (TGI) was over 100 µM in test [3]; over 100 µM in test [4]; over 100 µM in test [5]; over 100 µM in test [1]; 7.09 µM in test [6]; over 100 µM in test [7]. Also, the total growth inhibition concentration (TGI) in test [10], in [8] and in test [2] was over 100 µM in each case.

For the compound `O=C(N/N=C/c1ccc(O)cc1)NNCCO`, the total growth inhibition concentration (TGI) in [5], in test [1], in test [6], in [10], in test [8] and in [9] was over 100 µM each time. Besides, in [2], the concentration for total growth inhibition (TGI) was over 100 µM.

For `CCCC(CCC(=O)O)(CCC(=O)O)[N+](=O)[O-]`, the TGI in [4], in test [5], in test [6], in test [7], in test [10] and in test [9] was over 100 µM throughout. Also, the TGI in test [2] is over 100 µM.

Regarding `Nc1nc2c(nnn2C2C=C(CO)C(O)C2O)c(=O)[nH]1` (stereo not drawn), the total growth inhibition concentration (TGI) in [3], in test [4], in test [5], in [1], in test [6] and in test [10] was over 100 µM throughout. The TGI in test [8], in test [9] and in test [2] was over 100 µM throughout.

Take `Cc1ccc2c(=O)cc(-c3ccccc3)[nH]c2n1`: the TGI in test [3] is over 100 µM; in test [4], over 100 µM; in test [5], over 100 µM; in test [1] it was over 100 µM; in test [6], over 100 µM; in test [7], over 15.1 µM. Further, the TGI in test [10] was 6.3 µM; in [8] it was over 100 µM; in test [2], over 100 µM.

As for `Nc1nc(Cl)cc(OCC2(CO)CCCCC2)n1`, the concentration for total growth inhibition (TGI) in [3], in test [4], in test [5], in test [1], in test [7] and in test [10] was over 100 µM each time. In addition, the total growth inhibition concentration (TGI) in [8] and in test [2] was over 100 µM throughout.

Regarding `CCOC(=O)C1=C(C)NC(c2ccccc2)=C(C(=O)OCc2ccccc2)C1C#Cc1ccccc1` (stereo not drawn), the TGI in test [3], in test [4], in [5], in test [1], in test [6] and in test [7] was over 100 µM in each case. Further, the TGI in test [10], in test [9] and in [2] was over 100 µM each time.

As for `OC[C@@H](O)[C@H](O)[C@H](O)[C@@H](O)C1SCCCS1`, the concentration for total growth inhibition (TGI) in [4], in test [5], in [1], in test [6], in test [7] and in test [10] was over 100 µM throughout. The TGI in test [8] and in test [9] was over 100 µM throughout.

On to `Cc1[nH]c(-c2ccccc2)c(O)c1C(=O)OC1CC(C)CCC1C(C)C` (stereo not drawn), for which the TGI in test [4] turned out to be 29.4 µM; in [5], 27.2 µM; in test [1] it was 28.6 µM; in test [6], 28.2 µM; in test [7], 54.9 µM; in test [10], 32.1 µM. For the same compound, the TGI in [8] turned out to be 29.8 µM; in test [9] it was 30.9 µM; in test [2], 32.9 µM.

For the compound `N#Cc1ccccc1C#C/C=C\C#Cc1ccccn1`, the TGI in test [4] turned out to be 48.4 µM; in test [5], 58.6 µM; in test [1], 41.4 µM; in test [6], 33.3 µM; in test [10], 70 µM; in test [8], 36 µM. Also, the concentration for total growth inhibition (TGI) was 37 µM in [9] and 39.6 µM in test [2].

For `C#CCN(Cc1ccc2nc(-c3ccccc3)c(Cl)nc2c1)c1ccc(Cl)c(Cl)c1`, the total growth inhibition concentration (TGI) in test [3], in test [4], in [5], in [1], in test [6] and in [10] was over 100 µM in each case. The total growth inhibition concentration (TGI) in test [8], in test [9] and in test [2] was over 100 µM in each case.

As to `Cc1ccc(C2=C(c3ccccc3)C(O)(c3ccccc3)C(c3ccccc3)=C2c2ccc(C)cc2)cc1`, the TGI in [4], in test [5], in [1], in test [6], in test [7] and in test [10] was over 100 µM in each case. Also, the TGI in test [8] and in test [2] was over 100 µM in each case.

With `COc1ccc(C2=Nn3c(nc4sc5c(c4c3=O)CCCC5)SC2)cc1`, the TGI in test [3], in [4], in test [5], in [1], in test [7] and in [10] was over 100 µM each time. Further, the total growth inhibition concentration (TGI) in [8], in test [9] and in test [2] was over 100 µM in each case.

`CCCN1CCN(c2ccc3nc(-c4ccc5nc(-c6ccc(OCC)cc6)[nH]c5c4)[nH]c3c2)CC1`: the GI50 in test [5] was 1.88 µM; in test [6] it was 2.34 µM; in test [7], 0.382 µM; in test [9], 1.07 µM. Also, the total growth inhibition concentration (TGI) in test [5] was found to be 3.36 µM; in test [6] it was 5.86 µM; in test [7], 2.85 µM; in [9] it was 26.7 µM.

`Cc1nc2cc3[nH]c4ccccc4c(=O)c3cc2s1`: the TGI in test [4], in [5], in test [1], in [6], in test [7] and in test [10] was over 100 µM throughout. For the same compound, the total growth inhibition concentration (TGI) in [9] and in [2] was over 100 µM in each case.

Take `O=C1/C(=C/Cc2ccco2)N=C(c2ccccc2)N1c1nc2ccc(Sc3ccccc3)cc2[nH]1`: the TGI in [3] was 43.7 µM; in [4], 58.1 µM; in test [5], 96.9 µM; in test [1] it was over 100 µM; in [6], 34.8 µM; in test [7] it was over 100 µM. Further, the results for the TGI in test [10], in test [8] and in test [9] were over 100 µM, 85 µM and 83.1 µM, respectively.

In the case of `CCOC(=O)C(NS(=O)(=O)c1ccccc1)(C(F)(F)F)P(=O)(OCC(C)C)OCC(C)C` (stereo not drawn), the concentration for total growth inhibition (TGI) in test [3], in test [4], in test [5], in test [1], in [7] and in [10] was over 100 µM throughout. The concentration for total growth inhibition (TGI) in test [8], in test [9] and in test [2] was over 100 µM throughout.

In the case of `CCc1cc2c(cc1O)CC[C@@H]1[C@@H]2CC[C@]2(C)[C@@H](O)CC[C@@H]12`, the TGI in [3] came to 26.6 µM; in [4] it was 24.6 µM; in [5], 39.4 µM; in test [1], 19.8 µM; in [6], 25 µM; in test [10], 29.2 µM. Further, the TGI stood at 16.3 µM in test [8] and 12.5 µM in [2].

For `C#CCN1C(=O)CN2C(Cl)(Cl)C2(c2ccccc2)c2cc(Cl)ccc21` (stereo not drawn), the concentration for total growth inhibition (TGI) in test [3], in test [4], in [5], in [1], in test [6] and in test [7] was over 100 µM throughout. Further, the total growth inhibition concentration (TGI) in [10], in test [8] and in test [2] was over 100 µM throughout.
